In US20250228855A1, “PYRAZINAMIDE COMPOUNDS” (The General Hospital Corporation, priority 2022, published 2025):
Structures can show the parent of a compound that is named as a salt. Where two headings read alike, the source gives them in different places.

Key:
[1] = molecular target: PfcProRS (Plasmodium falciparum, UniProt Q8I5R7); experiment: TR-FRET ligand displacement assay with tracer MAT379, PfcProRS; assay type: binding
[2] = test system: luciferase-expressing P. berghei ANKA sporozoites; experiment: P. berghei liver stage assay in HuH7 cells; assay type: cell-based; details: Plasmodium berghei, Huh-7; HuH7 hepatocytes, ~44 hpi, luminescence
Protocol: (§1) Halofuginone and derivatives are active against liver stage Plasmodium parasites. NCP26 and MAT436 were evaluated in a tissue culture-based P. berghei liver stage model. Specifically, various test compounds were added in dose-response to human hepatocytes (HuH7) followed by infection with luciferase-expressing P. berghei ANKA sporozoites, which enabled quantification of parasite load by luminescence. In parallel, host cell viability was also assessed to provide an estimate of cellular selectivity.
(§2) P. berghei Liver Stage and HuH7 Host Hepatocyte Growth Assay: HuH7 cells (Sigma) were cultured in DMEM+L-Glutamine (Gibco) supplemented with 10% (v/v) heat-inactivated FBS (Sigma) and 1% (v/v) antibiotic/antimycotic (Sigma). Hepatocyte cultures were maintained in a standard tissue culture incubator at 37° C. Anopheles mosquitoes infected with luciferase-expressing P. berghei ANKA sporozoites were obtained from the Sporocore at the University of Georgia. […] At ˜44 hpi, HuH7 cell viability and P. berghei parasite load was assessed using CellTiter-Fluor (Promega) and Bright-Glo (Promega), respectively, using an Envision plate reader. Relative fluorescence and luminescence signal intensities were normalized to the negative control, 1% DMSO. EC50 values were determined using GraphPad Prism through fitting data to a dose response curve. […]

[3] = Storage stability of MAT436·HBr (LC-MS); assay type: physicochemical
[4] = test system: P. falciparum Dd2-2D4; experiment: P. falciparum asexual blood stage growth assay, wild-type Dd2-2D4; details: Plasmodium falciparum; for IC50: DD2, read-out: IC50 for Dd2-2D4
Protocol: (§3) Asexual blood stage (ABS) P. falciparum parasites were treated with test compounds at varying concentrations for 72 h, followed by quantification of parasite growth by SYBR Green staining.
(§4) P. falciparum Asexual Blood Stage Growth Assay: This assay was performed as previously described.

[5] = test system: halofuginone-induced (HFG-induced) P. falciparum; experiment: P. falciparum asexual blood stage growth assay, halofuginone-induced parasites; details: Plasmodium falciparum
Protocol: as §3, §4

[6] = molecular target: T1, HsProRS (Homo sapiens, UniProt P07814); experiment: TR-FRET ligand displacement assay with tracer MAT379, HsProRS; assay type: binding
T1 sequence (P07814 1007-1512 limits assumed): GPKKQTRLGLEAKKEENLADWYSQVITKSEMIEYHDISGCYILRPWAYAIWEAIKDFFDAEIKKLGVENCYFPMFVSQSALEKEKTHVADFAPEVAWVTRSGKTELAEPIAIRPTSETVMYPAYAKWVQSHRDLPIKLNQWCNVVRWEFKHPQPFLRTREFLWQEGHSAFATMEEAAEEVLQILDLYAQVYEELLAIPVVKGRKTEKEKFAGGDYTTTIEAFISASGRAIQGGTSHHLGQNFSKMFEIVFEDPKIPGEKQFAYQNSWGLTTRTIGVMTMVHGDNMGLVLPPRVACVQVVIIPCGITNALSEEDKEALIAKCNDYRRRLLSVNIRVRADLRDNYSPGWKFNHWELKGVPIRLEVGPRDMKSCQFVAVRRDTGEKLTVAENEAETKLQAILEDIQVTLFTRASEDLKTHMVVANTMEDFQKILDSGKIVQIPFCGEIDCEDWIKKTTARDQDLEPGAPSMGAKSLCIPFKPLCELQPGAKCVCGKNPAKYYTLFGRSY

[7] = test system: HuH7 cells; experiment: HuH7 host hepatocyte viability assay; assay type: cell-based; details: Homo sapiens, Huh-7; host cell viability
Protocol: as §1, §2

[8] = PfcProRS (KD [nM]) +proline, 100 μM Pro
[9] = DD2, 72 h, read-out: Dd2 (EC50 [nM]) wt
[10] = DD2, read-out: EC50 against Dd2-2D4 wildtype parasites
[11] = DD2, 72 h, read-out: Dd2 (EC50 [nM]) Halofuginone-induced
[12] = absence of proline, read-out: KD for PfcProRS
[13] = no proline, no ATP, read-out: PfcProRS (KD [nM]) −
[14] = absence of proline, read-out: KD for HsProRS
[15] = no proline, no ATP, read-out: HsProRS (KD [nM]) −
[16] = read-out: PfcProRS (KD [nM]) +proline, 100 μM Pro
[17] = read-out: HsProRS (KD [nM]) +proline, 100 μM Pro
[18] = PfcProRS (KD [nM]) +ATP, 500 μM ATP

Chain of PfcProRS (Q8I5R7 whole entry): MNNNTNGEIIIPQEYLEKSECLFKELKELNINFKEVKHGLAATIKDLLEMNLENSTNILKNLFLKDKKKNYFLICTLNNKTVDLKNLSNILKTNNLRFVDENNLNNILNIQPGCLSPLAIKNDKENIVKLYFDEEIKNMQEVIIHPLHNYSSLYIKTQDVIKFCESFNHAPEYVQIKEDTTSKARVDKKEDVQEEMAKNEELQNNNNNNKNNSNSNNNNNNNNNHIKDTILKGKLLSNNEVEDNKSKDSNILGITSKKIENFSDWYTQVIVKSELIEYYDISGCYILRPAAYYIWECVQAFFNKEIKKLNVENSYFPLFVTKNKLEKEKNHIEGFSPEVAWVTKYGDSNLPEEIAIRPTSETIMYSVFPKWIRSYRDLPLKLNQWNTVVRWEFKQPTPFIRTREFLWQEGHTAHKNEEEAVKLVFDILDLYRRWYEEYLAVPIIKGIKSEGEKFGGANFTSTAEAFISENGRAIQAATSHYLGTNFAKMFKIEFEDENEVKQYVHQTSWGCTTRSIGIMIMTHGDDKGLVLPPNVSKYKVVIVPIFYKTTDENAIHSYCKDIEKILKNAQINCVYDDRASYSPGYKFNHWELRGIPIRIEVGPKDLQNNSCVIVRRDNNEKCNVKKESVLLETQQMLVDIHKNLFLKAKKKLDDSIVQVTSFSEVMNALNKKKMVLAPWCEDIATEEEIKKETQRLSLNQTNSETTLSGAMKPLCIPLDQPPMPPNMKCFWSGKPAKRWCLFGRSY

| SMILES | Kd [1, 8] [nM] | EC50 [4, 9] [nM] | EC50 [5, 11] [nM] | Kd [1, 12] [nM] | Kd [1, 13] [nM] | Kd [6] [nM] | Kd [6, 14] [nM] | Kd [6, 15] [nM] | other results |
| --- | --- | --- | --- | --- | --- | --- | --- | --- | --- |
| O=C(C[C@H]1NCCC[C@@H]1OC(=O)NS(=O)(=O)N1CCN(C(=O)Nc2nccnc2C(=O)NC2Cc3ccccc3C2)CC1)Cn1cnc2cc(Br)c(Cl)cc2c1=O (relative stereo) [MAT436 (34), trans-2-(3-(7-bromo-6-chloro-4-oxoquinazolin-3(4H)-yl)-2-oxopropyl)piperidin-3-yl ((4-((3-((2,3-dihydro-1H-inden-2-yl)carbamoyl)pyrazin-2-yl)carbamoyl)piperazin-1-yl)sulfonyl)carbamate hydrobromide] | 0.722 | 6.76 | 251 | – | – | – | – | – | fold affinity for PfcProRS compared to halofuginone in the absence of ATP ([1]; absence of ATP): > 10^4 fold; Kd ([1]; absence of ATP, read-out: KD for PfcProRS): 0.375 nM; EC50 [2]: 186 nM; hydrolyzed at carbamate carbonyl ([3]; 10 mM stock solution in DMSO, 8 days at room temperature, LC-MS): ~36%; stability of neat compound ([3]; neat, 4° C.): stable indefinitely; EC50 [4, 10]: 6.8 nM |
| Nc1ncnc2c1ncn2[C@@H]1O[C@H](CNS(=O)(=O)NC(=O)OCCn2cnc3ccccc3c2=O)[C@@H](O)[C@H]1O [MAT511, 2-(4-oxoquinazolin-3(4H)-yl)ethyl (N-(((2R,3S,4R,5R)-5-(6-amino-9H-purin-9-yl)-3,4-dihydroxytetrahydrofuran-2-yl)methyl)sulfamoyl)carbamate] | 1810 | 76.5 | 52.2 | > 10000 | > 2860 | > 5090 | > 10000 | > 8720 | IC50 [4]: 73.9 nM |
| O=C(NS(=O)(=O)NCC1CCN(C(=O)Nc2nccnc2C(=O)NC2Cc3ccccc3C2)CC1)OCCn1cnc2ccccc2c1=O [MAT514, 2-(4-oxoquinazolin-3(4H)-yl)ethyl (N-((1-((3-((2,3-dihydro-1H-inden-2-yl)carbamoyl)pyrazin-2-yl)carbamoyl)piperidin-4-yl)methyl)sulfamoyl)carbamate] | 32.6 | 4560 | 7040 | 35.2 | – | 372 | 277 | – | IC50 [4]: 4560 nM |
| O=C(CCCCCNC(=O)Nc1ccccc1)NC1CCN(C(=O)Nc2nccnc2C(=O)NC2Cc3ccccc3C2)CC1 [MAT515] | 46.6 | 381 | 3300 | 70.4 | – | 504 | 169 | – | – |
| O=C(CCCCCNC(=O)Nc1ccccc1)NCC1CCN(C(=O)Nc2nccnc2C(=O)NC2Cc3ccccc3C2)CC1 [MAT516] | – | 636 | 4760 | – | 94.1 | – | – | 402 | Kd [1, 16]: 60.8 nM; Kd [6, 17]: 159 nM |
| O=C(CCCCCNC(=S)Nc1ccccc1)NCC1CCN(C(=O)Nc2nccnc2C(=O)NC2Cc3ccccc3C2)CC1 [MAT517] | – | 2680 | 6840 | – | 95.6 | – | – | 865 | Kd [1, 16]: 80.2 nM; Kd [6, 17]: 1680 nM |
| O=C(CCCCCNC(=S)NC1CCCCC1)NCC1CCN(C(=O)Nc2nccnc2C(=O)NC2Cc3ccccc3C2)CC1 [MAT518] | 288 | 1820 | 1500 | 372 | – | > 5090 | 2760 | – | selectivity for PfcProRS compared to HsProRS [1]: ~7 fold |
| CC(C)(C)OC(=O)N1CCC[C@@H](OC(=O)NS(=O)(=O)N2CCN(C(=O)Nc3nccnc3C(=O)NC3Cc4ccccc4C3)CC2)[C@@H]1CC(O)Cn1cnc2cc(Br)c(Cl)cc2c1=O (stereo partly drawn) [MAT582, tert-butyl (2S,3R)-2-(3-(7-bromo-6-chloro-4-oxoquinazolin-3(4H)-yl)-2-hydroxypropyl)-3-((((4-((3-((2,3-dihydro-1H-inden-2-yl)carbamoyl)pyrazin-2-yl)carbamoyl)piperazin-1-yl)sulfonyl)carbamoyl)oxy)piperidine-1-carboxylate] | 2740 | 8660 | > 10000 | – | 2490 | 8.42 | – | 265 | – |
| O=C(NS(=O)(=O)N1CCN(C(=O)Nc2nccnc2C(=O)NC2Cc3ccccc3C2)CC1)O[C@H]1CCCN[C@@H]1CC(O)Cn1cnc2cc(Br)c(Cl)cc2c1=O (stereo partly drawn) [MAT583, (2R,3S)-2-(3-(7-bromo-6-chloro-4-oxoquinazolin-3(4H)-yl)-2-hydroxypropyl)piperidin-3-yl ((4-((3-((2,3-dihydro-1H-inden-2-yl)carbamoyl)pyrazin-2-yl)carbamoyl)piperazin-1-yl)sulfonyl)carbamate 2,2,2-trifluoroacetate] | 19 | 2270 | 7750 | – | 187 | 150 | – | 687 | – |
| O=C(NC1Cc2ccccc2C1)c1nccnc1NC(=O)N1CCCCC1 [NCP26 (3), N-(2,3-dihydro-1H-inden-2-yl)-3-(piperidine-1-carboxamido)pyrazine-2-carboxamide] | 2.52 | 67.4 | 120 | – | 130 | – | – | 271 | Kd [1, 18]: 103 nM; Kd ([6]; read-out: HsProRS (KD [nM]) +ATP, +ATP): 678 nM; Kd [6, 17]: 0.351 nM; EC50 [2]: 249 nM; EC50 [7]: > 2500 nM; EC50 [4, 10]: 67.4 nM; EC50 ([5]; read-out: EC50 in halofuginone-induced parasites): 120 nM |
| O=C(C[C@H]1NCCC[C@@H]1O)Cn1cnc2cc(Br)c(Cl)cc2c1=O [halofuginone(1), halofuginone, reference compound] | > 3000 | 0.519 | 19.2 | – | > 3000 | 2040 | – | 1160 | Kd [1, 18]: 0.503 nM; Kd ([6]; HsProRS (KD [nM]) +ATP, +ATP): 0.225 nM |
